Among the data in patent US12577257B2, “Heterocyclic compounds” (Hoffmann-La Roche Inc., priority 2018, dated 2026) are IC50 values, retold here.

In general, IC50 refers to the concentration that inhibits the measured activity by half. Low values mean greater potency in that assay, high ones weaker potency in that assay.

The target of this assay is T1, MAGL (Homo sapiens, UniProt Q99685).
T1 sequence (Q99685 1-303): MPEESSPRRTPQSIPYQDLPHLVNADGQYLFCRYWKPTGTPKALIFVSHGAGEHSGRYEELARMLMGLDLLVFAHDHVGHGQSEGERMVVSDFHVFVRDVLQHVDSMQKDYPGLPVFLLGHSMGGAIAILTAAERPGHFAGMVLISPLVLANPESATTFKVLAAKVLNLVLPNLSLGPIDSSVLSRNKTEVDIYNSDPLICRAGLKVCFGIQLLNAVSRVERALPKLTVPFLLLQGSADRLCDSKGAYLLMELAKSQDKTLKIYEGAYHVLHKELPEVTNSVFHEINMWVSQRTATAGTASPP
The assay can be described thus: MAGL inhibition, Table 1 values with no assay marker (2-AG or 4-NPA assay not stated). It counts as biochemical. As for the experimental part: Compounds were profiled for MAGL inhibitory activity by measuring the enzymatic activity of MAGL by following the hydrolysis of 4-nitrophenylacetate resulting in 4-nitrophenol, which absorbs at 405-412 nm (G. G. Muccioli, G. Labar, D. M. Lambert, Chem. Bio. Chem. 2008, 9, 2704-2710). This assay is hereinafter abbreviated “4-NPA assay”.
The 4-NPA assay was carried out in 384 well assay plates (black with clear bottom, non-binding surface treated, Corning Ref. 3655) in a total volume of 40 μL. Compound dilutions were made in 100% DMSO (VWR Chemicals 23500.297) in a polypropylene plate in 3-fold dilution steps to give a final concentration range in the assay from 25 μM to 1.7 nM. 1 μL compound dilutions (100% DMSO) were added to 19 μL MAGL (recombinant wild-type) in assay buffer (50 mM TRIS (GIBCO, 15567-027), 1 mM EDTA (Fluka, 03690-100 ml)). The plate was shaked for 1 min at 2000 rpm (Variomag Teleshake) and then incubated for 15 min at RT. To start the reaction, 20 μL 4-Nitrophenylacetate (Sigma N-8130) in assay buffer with 6% EtOH was added. The final concentrations in the assay were 1 nM MAGL and 300 μM 4-Nitrophenylacetate. After shaking (1 min, 2000 rpm) and 5 min incubation at RT, the absorbance at 405 nm was measured for a first time (Molecular Devices, SpectraMax Paradigm). A second measurement was then done after incubation for 80 min at RT. From the two measurements, the slope was calculated by subtracting the first from the second measurement.
Alternatively, compounds were profiled for MAGL inhibitory activity by determining the enzymatic activity by following the hydrolysis of the natural substrate 2-arachidonoylglycerol resulting in arachidonic acid, which can be followed by mass spectrometry. This assay is hereinafter abbreviated “2-AG assay”.
The 2-AG assay was carried out in 384 well assay plates (PP, Greiner Cat #784201) in a total volume of 20 μL. Compound dilutions were made in 100% DMSO (VWR Chemicals 23500.297) in a polypropylene plate in 3-fold dilution steps to give a final concentration range in the assay from 12.5 μM to […]. 0.25 μL compound dilutions (100% DMSO) were added to 9 μL MAGL in assay buffer (50 mM TRIS (GIBCO, 15567-027), 1 mM EDTA (Fluka, 03690-100 ml), 0.01% (v/v) Tween. After shaking, the plate was incubated for 15 min at RT. To start the reaction, 10 μL 2-arachidonoylglycerol in assay buffer was added. The final concentrations in the assay was […] and 8 μM 2-arachidonoylglycerol. After shaking and 30 min incubation at RT, the reaction was quenched by the addition of 40 μL of acetonitrile containing 4 μM of d8-arachidonic acid. The amount of arachidonic acid was traced by an online SPE system (Agilent Rapidfire) coupled to a triple quadrupole mass spectrometer (Agilent 6460). A C18 SPE cartridge (G9205A) was used in an acetonitrile/water liquid setup. The mass spectrometer was operated in negative electrospray mode following the mass transitions 303.1→259.1 for arachidonic acid and 311.1→267.0 for d8-arachidonic acid. The activity of the compounds was calculated based on the ratio of intensities [arachidonic acid/d8-arachidonic acid].
In turn, `CC(C)Oc1ccc(N2CC3(CCN(C(=O)N4CC[C@@H]5OCC(=O)N[C@@H]5C4)C3)C2)cc1` [Example 59, (4aR,8aS)-6-(2-(4-isopropoxyphenyl)-2,6-diazaspiro[3.4]octane-6-carbonyl)hexahydro-2H-pyrido[4,3-b][1,4]oxazin-3(4H)-one] displayed a half-maximal inhibitory concentration (IC50) of 297 nM. In turn, `O=C1CO[C@H]2CCN(C(=O)N3CC4(CC(c5ccc(C(F)(F)F)cc5F)C4)C3)C[C@H]2N1` [Example 45, (4aR,8aS)-6-(6-(2-fluoro-4-(trifluoromethyl)phenyl)-2-azaspiro[3.3]heptane-2-carbonyl)hexahydro-2H-pyrido[4,3-b][1,4]oxazin-3(4H)-one] came in with a half-inhibitory concentration (IC50) of 37 nM. For `O=C1CO[C@H]2CCN(C(=O)N3CC4(C3)CC(OCc3ccc(C(F)(F)F)cc3F)(C(F)(F)F)C4)C[C@H]2N1` [Example 44, (4aR,8aS)-6-(6-((2-fluoro-4-(trifluoromethyl)benzyl)oxy)-6-(trifluoromethyl)-2-azaspiro[3.3]heptane-2-carbonyl)hexahydro-2H-pyrido[4,3-b][1,4]oxazin-3(4H)-one], the midpoint of inhibition, the IC50, lay at 185 nM.

In turn, `Cn1nccc1-c1ccc(C2CC3(C2)CN(C(=O)N2CC[C@@H]4OCC(=O)N[C@@H]4C2)C3)cc1` [Example 48, (4aR,8aS)-6-(6-(4-(1-methyl-1H-pyrazol-5-yl)phenyl)-2-azaspiro[3.3]heptane-2-carbonyl)hexahydro-2H-pyrido[4,3-b][1,4]oxazin-3(4H)-one] returned an IC50 of 223 nM. `O=C1CO[C@H]2CCN(C(=O)N3CC4(C3)CN(S(=O)(=O)c3ccc(C(F)(F)F)cc3C(F)(F)F)C4)C[C@H]2N1` [Example 69, (4aR,8aS)-6-(6-((2,4-bis(trifluoromethyl)phenyl)sulfonyl)-2,6-diazaspiro[3.3]heptane-2-carbonyl)hexahydro-2H-pyrido[4,3-b][1,4]oxazin-3(4H)-one] showed a concentration for half-maximal inhibition (IC50) of 214 nM. `O=C1CO[C@H]2CCN(C(=O)N3CC4(CC(c5ccc(S(F)(F)(F)(F)F)cc5)C4)C3)C[C@H]2N1` [Example 46, (4aR,8aS)-6-(6-(4-(pentafluoro-l6-sulfaneyl)phenyl)-2-azaspiro[3.3]heptane-2-carbonyl)hexahydro-2H-pyrido[4,3-b][1,4]oxazin-3(4H)-one] showed a 50% inhibitory concentration (IC50) of 14.5 nM. In the case of `O=C1CO[C@H]2CCN(C(=O)N3CC4(C3)CN(c3cc(C(F)(F)F)ccc3C(F)(F)F)C4)C[C@H]2N1` [Example 65, (4aR,8aS)-6-(6-(2,5-bis(trifluoromethyl)phenyl)-2,6-diazaspiro[3.3]heptane-2-carbonyl)hexahydro-2H-pyrido[4,3-b][1,4]oxazin-3(4H)-one], the IC50 came out at 1100 nM. The same measure for `O=C1CO[C@H]2CCN(C(=O)N3CCC4(C3)CN(c3cccc(C(F)(F)F)c3)C4)C[C@H]2N1` [Example 58, (4aR,8aS)-6-(2-(3-(trifluoromethyl)phenyl)-2,6-diazaspiro[3.4]octane-6-carbonyl)hexahydro-2H-pyrido[4,3-b][1,4]oxazin-3(4H)-one]: 70.7 nM; for `O=C1CO[C@H]2CCN(C(=O)N3CC4(CC(c5ccc(N6CCCC6C(F)(F)F)cc5)C4)C3)C[C@H]2N1` (stereo partly drawn) [Example 47, (4aR,8aS)-6-(6-(4-(2-(trifluoromethyl)pyrrolidin-1-yl)phenyl)-2-azaspiro[3.3]heptane-2-carbonyl)hexahydro-2H-pyrido[4,3-b][1,4]oxazin-3(4H)-one]: 39.8 nM. The same measure for `COc1cc(C(F)(F)F)ccc1CC1CC2(C1)CN(C(=O)N1CC[C@@H]3OCC(=O)N[C@@H]3C1)C2` [Example 52, (4aR,8aS)-6-(6-(2-methoxy-4-(trifluoromethyl)benzyl)-2-azaspiro[3.3]heptane-2-carbonyl)hexahydro-2H-pyrido[4,3-b][1,4]oxazin-3(4H)-one]: 0.03 nM; for `O=C1CO[C@H]2CCN(C(=O)N3CC4(CC(S(=O)(=O)c5ccc(F)cc5Cl)C4)C3)C[C@H]2N1` [Example 67, (4aR,8aS)-6-(6-((2-chloro-4-fluorophenyl)sulfonyl)-2-azaspiro[3.3]heptane-2-carbonyl)hexahydro-2H-pyrido[4,3-b][1,4]oxazin-3(4H)-one]: 67.1 nM. In turn, `COc1cccc(F)c1CC1CC2(C1)CN(C(=O)N1CC[C@@H]3OCC(=O)N[C@@H]3C1)C2` [Example 71, (4aR,8aS)-6-(6-(2-fluoro-6-methoxybenzyl)-2-azaspiro[3.3]heptane-2-carbonyl)hexahydro-2H-pyrido[4,3-b][1,4]oxazin-3(4H)-one] had a concentration for half-maximal inhibition (IC50) of 0.1 nM. On to `O=C1CO[C@H]2CCN(C(=O)N3CC4(C3)CN(c3ccc(C(F)(F)F)cc3)C4)C[C@H]2N1` [Example 55, (4aR,8aS)-6-(6-(4-(trifluoromethyl)phenyl)-2,6-diazaspiro[3.3]heptane-2-carbonyl)hexahydro-2H-pyrido[4,3-b][1,4]oxazin-3(4H)-one], for which half-maximal inhibition (IC50) was put at 1040 nM.

In the case of `O=C1CO[C@H]2CCN(C(=O)N3CC4(C3)CN(S(=O)(=O)c3ccc(C(F)(F)F)c(Cl)c3)C4)C[C@H]2N1` [Example 68, (4aR,8aS)-6-(6-((3-chloro-4-(trifluoromethyl)phenyl)sulfonyl)-2,6-diazaspiro[3.3]heptane-2-carbonyl)hexahydro-2H-pyrido[4,3-b][1,4]oxazin-3(4H)-one], the 50% inhibitory concentration (IC50) came out at 357 nM.

`O=C1CO[C@H]2CCN(C(=O)N3CCC4(C3)CN(c3ccc(Cl)c(C(F)(F)F)c3)C4)C[C@H]2N1` [Example 63, (4aR,8aS)-6-(2-(4-chloro-3-(trifluoromethyl)phenyl)-2,6-diazaspiro[3.4]octane-6-carbonyl)hexahydro-2H-pyrido[4,3-b][1,4]oxazin-3(4H)-one] returned a 50% inhibitory concentration (IC50) of 15.9 nM. The molecule `COc1ccc(N2CC3(CCN(C(=O)N4CC[C@@H]5OCC(=O)N[C@@H]5C4)C3)C2)cc1C` [Example 62, (4aR,8aS)-6-(2-(4-methoxy-3-methylphenyl)-2,6-diazaspiro[3.4]octane-6-carbonyl)hexahydro-2H-pyrido[4,3-b][1,4]oxazin-3(4H)-one] showed a 50% inhibitory concentration (IC50) of 58.8 nM. The molecule `O=C1CO[C@H]2CCN(C(=O)N3CC4(CC(Cc5c(F)cccc5C(F)(F)F)C4)C3)C[C@H]2N1` [Example 53, (4aR,8aS)-6-(6-(2-fluoro-6-(trifluoromethyl)benzyl)-2-azaspiro[3.3]heptane-2-carbonyl)hexahydro-2H-pyrido[4,3-b][1,4]oxazin-3(4H)-one] came in with a half-inhibitory concentration (IC50) of 0.05 nM. Consider `O=C1CO[C@H]2CCN(C(=O)N3CC4(CC(Cc5ccc(C(F)(F)F)cc5F)C4)C3)C[C@H]2N1` [Example 49, (4aR,8aS)-6-(6-(2-fluoro-4-(trifluoromethyl)benzyl)-2-azaspiro[3.3]heptane-2-carbonyl)hexahydro-2H-pyrido[4,3-b][1,4]oxazin-3(4H)-one], for which the concentration for half-maximal inhibition (IC50) stood at 0.03 nM.

Turning to `O=C1CO[C@H]2CCN(C(=O)N3CC4(CC(Cc5ccc(F)cc5Cl)C4)C3)C[C@H]2N1` [Example 50, (4aR,8aS)-6-(6-(2-chloro-4-fluorobenzyl)-2-azaspiro[3.3]heptane-2-carbonyl)hexahydro-2H-pyrido[4,3-b][1,4]oxazin-3(4H)-one], the half-inhibitory concentration (IC50) amounted to 0.04 nM.

`O=C1CO[C@H]2CCN(C(=O)N3CCC4(C3)CN(c3ccc(C(F)(F)F)cc3)C4)C[C@H]2N1` [Example 57, (4aR,8aS)-6-(2-(4-(trifluoromethyl)phenyl)-2,6-diazaspiro[3.4]octane-6-carbonyl)hexahydro-2H-pyrido[4,3-b][1,4]oxazin-3(4H)-one] registered an IC50 of 175 nM.
